Source: patent publication US12673921B2, “Substituted fluorine-containing imidazole salt compound, preparation method therefor, pharmaceutical composition thereof and use thereof” (XIAMEN VIVOHEALTHS TECHNOLOGY CO., LTD., priority 2019, dated 2026)

Experiments:
Format in all cases: in vitro ADME
human hepatocytes = assay: Hepatocyte metabolism assay
Protocol: Experimental procedures: a test sample (concentration: 10 μM) or a positive control (concentration: 30 μM) was co-incubated with hepatic cells of various genera (cell density: 1.0×10^6 cells/mL) for 120 min under the conditions of 37° C./5% CO2/saturated humidity. The sample was centrifuged after protein precipitation by using acetonitrile solution containing 0.1% formic acid according to the proportion of 1:2, the supernatant was blown dry by nitrogen, and then redissolved by using 200 μl of a 10% acetonitrile/water (containing 0.1% formic acid) solution. 15 μL of the obtained solution was introduced each time to an LC-MS instrument system for analysis.

[1] = Liver microsome stability test, Beagle dog liver microsome; settings: microsomes, 0.5 mg protein/mL microsome, 1 μM compound, 37° C., NADPH, read-out: DLM 0.5 T1/2 (min), half life in Beagle dog liver microsome
Protocol: (§1) The experimental steps were as follows: • 1. Preparation of working solution • 1.1 Intermediate solution: 5 μL of a 10 mM stock solution of sample or control was taken out, and diluted with 495 μl of methanol (Conc.: 100 μM, 99% MeOH). • 1.2 Working solution: 50 μL of the intermediate solution was taken out, and diluted with 450 μL of a 100 mM potassium phosphate buffer (Conc.: 10 μM, 9.9% MeOH). • 2. Preparation of NADPH cofactor
(§2) An appropriate amount of NADPH powder was weighed, and dissolved with a MgCl2 (10 mM) solution. • 3. Liver microsome • 3.1 Liver microsome information
(§3) • 3.2 Preparation: a microsome working solution with an appropriate concentration was prepared by using a 100 mM potassium phosphate buffer. • 4. Stop solution
(§4) Glacial acetonitrile, comprising 100 ng/ml Tolbutamide and 100 ng/ml Labetalol as internal standards. • 5. Experimental procedures • 5.1 10 μL of the working solution of sample or control was added per well to all plates (T0, T5, T10, T20, T30, T60, NCF60), except for the blank group; • 5.2 80 μL of the working solution of microsome was added per well to all plates, followed by incubation for 10 min at 37° C.; • 5.3 10 μL of a 100 mM potassium phosphate buffer was added per well to NCF60, followed by incubation at 37° C. and starting timer 1;
(§5) • 5.4 After preheating, 10 μL of NADPH was added per well to each plate, and reaction was started;
(§6) Final concentration of each component in the incubation medium:
(§7) • 5.6 300 μL of the stop solution was added per well to stop the reaction; • 5.7 The system was shaken for about 10 min; • 5.8 The samples were centrifuged (4000 rpm) at 4° C. for 20 min; • 5.9 To 8 new 96-well plates, 300 μL of HPLC water was added per well, then 100 μL of the supernatant was added, mixed and subjected to LC/MS/MS.
(§8) In the above table, HLM 0.5 T1/2 (min) refers to half life (min) of compounds in human liver microsome, DLM 0.5 T1/2 (min) refers to half life (min) of compounds in Beagle dog liver microsome.

[2] = Liver microsome stability test, human liver microsome; settings: microsomes, 0.5 mg protein/mL microsome, 1 μM compound, 37° C., NADPH, read-out: HLM 0.5 T1/2 (min), half life in human liver microsome
Protocol: as §1, §2, §3, §4, §5, §6, §7, §8

Cc1n(CCCCCCCCCCCC(F)(F)C(F)(F)C(F)(F)C(F)(F)C(F)(F)F)cc[n+]1Cc1c(Cl)cccc1Cl.[Cl-] [IB-33]
metabolic stability in human hepatocytes (in words) (human hepatocytes; human hepatocyte incubation, 120 min): relatively stable | relative content of original drug remained (human hepatocytes; human hepatocytes, after incubation for 120 min): 79% | Relative abundance (MS peak area %) (human hepatocytes; incubation of IB-33 10 μM with human hepatocytes, 120 min, parent drug and its possible metabolites): 79.31% | half-life at 1 μM [1]: > 145 min | half-life at 1 μM [2]: > 145 min
